{"source": "patent US20220018852A1", "about": "“METHODS AND KITS FOR DETECTING LIVER DYSFUNCTION IN A SUBJECT” (priority 2018, published 2022)", "key": {"HSA [1]": {"biological_target": "T1, HSA (Homo sapiens, UniProt P02768)", "T1 sequence (P02768 25-609)": "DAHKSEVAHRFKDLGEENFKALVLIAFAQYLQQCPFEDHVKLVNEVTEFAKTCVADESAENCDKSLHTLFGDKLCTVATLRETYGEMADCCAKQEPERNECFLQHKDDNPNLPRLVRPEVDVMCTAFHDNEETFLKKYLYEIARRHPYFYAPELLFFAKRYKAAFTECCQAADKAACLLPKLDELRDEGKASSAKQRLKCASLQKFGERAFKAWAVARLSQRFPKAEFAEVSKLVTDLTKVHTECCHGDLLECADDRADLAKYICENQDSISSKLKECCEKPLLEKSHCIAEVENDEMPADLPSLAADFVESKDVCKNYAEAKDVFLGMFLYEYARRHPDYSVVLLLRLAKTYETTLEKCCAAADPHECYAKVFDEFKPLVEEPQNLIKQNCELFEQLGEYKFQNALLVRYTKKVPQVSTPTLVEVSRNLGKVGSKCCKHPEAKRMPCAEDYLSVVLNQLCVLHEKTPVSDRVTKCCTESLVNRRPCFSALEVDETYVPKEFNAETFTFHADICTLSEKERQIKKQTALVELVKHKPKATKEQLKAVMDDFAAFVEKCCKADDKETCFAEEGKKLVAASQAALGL", "experiment": "Enhanced binding capacity of serum/HSA: serum of patients with no liver dysfunction spiked with ligand, ultrafiltration, ICP-MS of unbound ligand"}, "HSA [2]": {"biological_target": "T1, HSA", "experiment": "Same binding test with Vialebex commercial albumin solution at 200 mg/mL", "settings": "Vialebex commercial solution of pure HSA"}, "HSA [3]": {"biological_target": "T1, HSA", "experiment": "SEB test, discovery cohort: cirrhotic patients vs patients with no liver dysfunction", "type": "binding", "settings": "for sensitivity of discrimination of cirrhotic from control patients / specificity of discrimination of cirrhotic from control patients: discovery cohort, 18 cirrhotic vs 18 controls, HSA/ligand Au 1/100, Cu 1/10, dansylsarcosine 1/5, L-thyroxine 1/10"}, "HSA [4]": {"biological_target": "T1, HSA", "experiment": "SEB test, development cohort: 45 cirrhotic vs 45 control patients", "type": "binding", "settings": "45 cirrhotic vs 45 controls"}, "HSA [5]": {"biological_target": "T1, HSA", "settings": "literature [21]; cited from earlier work"}, "albumin of rats": {"biological_target": "T2, albumin of rats (Rattus norvegicus, UniProt P02770)", "T2 construct": "The SEB test was performed in the serum of all groups of rats; from tissue; host or cells: serum of male Wistar rats (ethanol-treated and control)", "T2 sequence (P02770 25-608)": "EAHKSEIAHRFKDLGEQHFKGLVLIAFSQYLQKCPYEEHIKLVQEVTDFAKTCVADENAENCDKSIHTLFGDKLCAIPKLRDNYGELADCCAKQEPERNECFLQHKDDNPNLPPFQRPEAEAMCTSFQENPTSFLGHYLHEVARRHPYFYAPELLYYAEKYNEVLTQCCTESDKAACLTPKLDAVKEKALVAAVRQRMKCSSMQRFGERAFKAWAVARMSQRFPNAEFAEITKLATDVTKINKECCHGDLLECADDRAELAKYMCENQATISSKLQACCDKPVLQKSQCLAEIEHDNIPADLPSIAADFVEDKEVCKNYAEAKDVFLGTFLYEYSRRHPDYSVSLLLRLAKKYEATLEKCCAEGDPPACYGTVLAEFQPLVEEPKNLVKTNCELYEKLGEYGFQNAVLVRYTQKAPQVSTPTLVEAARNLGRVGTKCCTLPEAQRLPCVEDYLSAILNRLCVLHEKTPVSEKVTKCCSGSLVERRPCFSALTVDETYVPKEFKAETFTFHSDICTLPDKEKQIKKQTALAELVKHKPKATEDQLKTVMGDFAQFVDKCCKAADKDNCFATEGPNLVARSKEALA", "experiment": "SEB test applied to serum of ethanol-treated rats", "type": "binding", "settings": "L-thyroxine at 1/5, Au at 1/50"}}, "note": "Values joined by “and” are separate entries in the source; they are usually repeats but may differ in a detail not shown here. Equal values may be shown once. Where a name gives a salt, the structure may show the parent alone.", "data": [{"smiles": "[Cl][Cu][Cl]", "note": "[Cu, copper(II) chloride]", "values": [{"measurement": "retention when more Cu was added", "setting": "HSA [1]; above 12 Cu atoms per albumin molecule", "value": "≤ 40", "unit": "%"}, {"measurement": "Cu atoms per albumin molecule retained on the ultracentrifugation filter", "setting": "HSA [1]; serum of patients with no liver dysfunction, average retention of 95%", "value": "up to 12 atoms per albumin molecule"}, {"measurement": "average retention", "setting": "HSA [1]; up to 12 Cu atoms per albumin molecule", "value": 95, "unit": "%"}, {"measurement": "ligand/HSA retention ratio", "setting": "HSA [2]", "value": 40}, {"measurement": "Ratio Cu/HSA, reference value", "setting": "HSA [3]; control patients, mean", "value": 4.3, "unit": "μM/μg/L"}, {"measurement": "sensitivity of discrimination of cirrhotic from control patients", "setting": "HSA [3]", "value": 100, "unit": "%"}, {"measurement": "specificity of discrimination of cirrhotic from control patients", "setting": "HSA [3]", "value": 72, "unit": "%"}, {"measurement": "Ratio Cu/HSA (ligand in the filtrate / albumin)", "setting": "HSA [3]; individual cirrhotic patients 1-18, one value per patient, HSA/Cu 1/10", "value": "7.5 μM/μg/L and 4.97 μM/μg/L and 9.33 μM/μg/L and 15.85 μM/μg/L and 5.5 μM/μg/L and 10.45 μM/μg/L and 9.07 μM/μg/L and 6.86 μM/μg/L and 9.64 μM/μg/L and 7.54 μM/μg/L and 6.74 μM/μg/L and 4.76 μM/μg/L and 5.59 μM/μg/L and 8.25 μM/μg/L and 10.68 μM/μg/L and 11.02 μM/μg/L and 5.26 μM/μg/L and 5.56 μM/μg/L"}, {"measurement": "Ratio Cu/HSA (ligand in the filtrate / albumin)", "setting": "HSA [3]; patient 19, NASH without cirrhosis", "value": 5.1, "unit": "μM/μg/L"}, {"measurement": "specificity (Sp)", "setting": "HSA [4]", "value": 98, "unit": "%"}, {"measurement": "atoms of Cu HSA is able to bind (reported)", "setting": "HSA [5]", "value": "less than 2 atoms"}]}, {"smiles": "CN(C)c1cccc2c(S(=O)(=O)N(C)CC(=O)O)cccc12", "note": "[dansylsarcosine, Dansylsarcosine Piperidinium Salt]", "values": [{"measurement": "molecules bound per molecule of albumin", "setting": "HSA [1]; serum samples, 100% retention, L-thyroxine not testable above 1/10 ratio (dissolution problems)", "value": "≤ 2.5 molecules per molecule of albu"}, {"measurement": "Ratio DS/HSA, reference value", "setting": "HSA [3]; control patients, mean", "value": 0.23, "unit": "μM/μg/L"}, {"measurement": "sensitivity of discrimination of cirrhotic from control patients", "setting": "HSA [3]", "value": 100, "unit": "%"}, {"measurement": "specificity of discrimination of cirrhotic from control patients", "setting": "HSA [3]", "value": 100, "unit": "%"}, {"measurement": "Ratio DS/HSA (ligand in the filtrate / albumin)", "setting": "HSA [3]; individual cirrhotic patients 1-18, one value per patient, HSA/dansylsarcosine 1/5, listed as DS", "value": "4.77 μM/μg/L and 2.26 μM/μg/L and 5.71 μM/μg/L and 7.58 μM/μg/L and 0.78 μM/μg/L and 16.38 μM/μg/L"}, {"measurement": "specificity (Sp)", "setting": "HSA [4]", "value": 98, "unit": "%"}]}, {"smiles": "O.O.O.[Cl][Au]([Cl])[Cl]", "note": "[Au, gold(III) chloride trihydrate]", "values": [{"measurement": "SEB test result in rat serum", "setting": "albumin of rats; as soon as D1 (ethanol for 1 day)", "value": "positive"}]}, {"smiles": "[Cd]", "note": "[Cd]", "values": [{"measurement": "atoms bound per molecule of albumin", "setting": "HSA [1]; serum samples, 100% retention", "value": "≤ 50 atoms per molecule of albumin"}, {"measurement": "specificity (Sp)", "setting": "HSA [4]", "value": 98, "unit": "%"}, {"measurement": "SEB test result in rat serum", "setting": "albumin of rats; group D14 (ethanol for 14 days), Cu, Cd", "value": "positive"}]}]}
